Assay results from patent US20110071289A1, “AMINOPYRAZOLE AMIDE DERIVATIVE” (DAINIPPON SUMITOMO PHARMA CO., LTD., priority 2007, published 2011).

Legend:
human 11βHSD1 = biological target: T1, human 11βHSD1 (Homo sapiens, UniProt P28845); assay: Measurement of human 11βHSD1 inhibitory activity (HTRF cortisol detection); type: biochemical; conditions: human 11βHSD1 enzyme fraction, 20 nM cortisone, 37° C. for 2 hours
T1 construct: made in house; host or cells: CHO-K1 cells stably transfected with pCMV-Tag 2B plasmid; pellet after ultracentrifugation at 100,000 g
T1 sequence (P28845 whole entry): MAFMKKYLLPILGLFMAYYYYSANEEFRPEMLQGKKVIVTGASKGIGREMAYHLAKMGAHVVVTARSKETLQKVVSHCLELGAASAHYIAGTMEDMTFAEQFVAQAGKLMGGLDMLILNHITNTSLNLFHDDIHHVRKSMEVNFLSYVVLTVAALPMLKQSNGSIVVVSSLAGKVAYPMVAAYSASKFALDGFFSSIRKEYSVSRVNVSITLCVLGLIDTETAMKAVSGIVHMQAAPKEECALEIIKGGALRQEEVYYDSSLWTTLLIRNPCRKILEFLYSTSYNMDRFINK
Excerpt: A sequence containing ORF of human 11βHSD1 gene (GenBank Accession No. BC012593) was amplified according to PCR technique which was one of conventional methods, and digested by a restriction enzyme BamHI/XhoI. 2 kb of DNA fragments obtained from agarose gels were inserted into pCMV-Tag 2B plasmids (Stratagene) according to a conventional method. The plasmids prepared in Escherichia coli in large amounts were transformed into CHO-K1 cells, and then cells stably expressing human 11βHSD1 genes were selected by medium containing 400 μg/ml G-418 solution (GIBCO, Inc.) containing media. The resulting stably expressing cells were incubated up to −90% confluent in F-12 medium (Nacalai Tesque, Inc.) containing 10% charcoal-dextran treated fetal bovine serum (Hyclone), 1% penicillin-streptomycin (Nacalai Tesque, Inc.) and 400 μg/ml G-418. The resultant cells were treated by tripsin, and the obtained cells were suspended in the above media (1 L) and seeded in cell stack 10 chamber (Corning) in total amounts. The mixture was incubated in CO2 incubator (5% CO2, 37° C.) for 4-5 days, and then treated by tripsin. Total amounts of the obtained cells were washed with PBS buffer (GIBCO, Inc.), and stored at −80° C. […]
A test compound and cortisone (Sigma) was diluted with buffer (50 mM HEPES pH7.3, 150 mM NaCl, 1 mM EDTA) to prepare a substrate solution containing a test compound (50 mM HEPES pH7.3, 150 mM NaCl, 1 mM EDTA, 1 mM NADPH, 20 nM cortisone) (2% DMSO solution), and the solution was added to 384-well low-volume plate (manufactured by Greiner, No. 3782086) in 4 μl/well. […] After the enzyme reaction, the produced cortisol was detected by Homogeneous time-resolved fluorescence (HTRF) to determine enzyme inhibitory activities. […] A fluorescence intensity was determined by 2120 EnVision® Multilabel counter (PerkinElmer) to calculate enzyme inhibitory activities from 2 wavelengths of fluorescence intensity ratios (665 nm/620 nm).
Each inhibitory activity (%) of each test compound was calculated from the average value (%) of inhibitory activities of 4 wells under the same condition. […]

[1] = system: cortisone reducing activity of cultured human adipocytes; assay: Inhibitory activity assay for cortisone reducing activity of cultured human adipocytes; type: cell-based; conditions: 100 nM [1,2-3H] cortisone, 37° C. for 3 hours
Method: Normal human proadipocytes (HPrAD-vis, Cambrex) were inoculated on 48 well plate, and differentiated according to a protocol attached to a kit. Media for cells on 9-11th day of differentiation were changed to 0.2 ml of D-MEM media (GIBCO, Inc.) containing 100 nM [1,2-^3H] cortisone (1 μCi/well, Muromati Yakuhin), 0.5% DMSO, test compound (DMSO only for test compound-addition districts and test compound additive-free districts). After incubation at 37° C. for 3 hours, all media were collected. As background districts, cell additive-free media were used. Media were mixed with ethyl acetate (0.1 ml) in Eppendorf tube. The mixture was vortexed, and then centrifuged at 5,000 rpm×1 minute at room temperature to separate ethyl acetate (upper layer). Ethyl acetate (10 μl) was spotted on aluminum plate for thin-layer chromatography (silica gel 60 angstrom, Merck, referred to as TLC plate hereinafter). To a sealed vessel was added chloroform/methanol (90:10, v/v) as an eluent, and TLC plate was developed and then dried at room temperature. To the dried TLC plate was exposed an imaging plate (TR-2040, FUJIFILM) over 16 or more hours. After exposure, the imaging plate was analyzed by Bioimage analyzer (BAS2500, FUJIFILM), and [^3H] radioactivity of the spot corresponding to cortisol on TLC plate was determined Inhibitory activities of cortisone reducing activities of test compounds were calculated as below.
(Inhibitory activity (%))=100×((Test compound additive-free districts)−(Test compound-addition districts))/((Test compound additive-free districts)−(Background districts))
IC50 values were calculated by a linear regression of logarithmic values of analyte concentrations and inhibitory activity values using 2-point data wherein inhibitory activities indicated values around 50%. […] IC50 values for human adipocyte cortisone reducing activities of the following inventive compounds were determined

IC50 (human 11βHSD1)	IC50 ([1]; Adipocyte)	SMILES	other results
32 nM		CN(C)c1c(Cl)c(C(=O)N[C@H]2C3CC4CC2C[C@](C(N)=O)(C4)C3)nn1C [Example 11, N-[(E)-5-Carbamoyladamantan-2-yl]-4-chloro-5-(dimethylamino)-1-methyl-1H-pyrazole-3-carboxamide]	
39 nM		CN(CC1CC1)c1cc(C(=O)N[C@H]2C3CC4CC2C[C@](C(N)=O)(C4)C3)nn1C [Example 15, N-[(E)-5-Carbamoyladamantan-2-yl]-5-[(cyclopropylmethyl)(methyl)amino]-1-methyl-1H-pyrazole-3-carboxamide]	
25 nM		CN(c1cc(C(=O)N[C@H]2C3CC4CC2C[C@](C(N)=O)(C4)C3)nn1C)C1CCC1 [Example 19, N-[(E)-5-Carbamoyladamantan-2-yl]-5-[cyclobutyl(methyl)amino]-1-methyl-1H-pyrazole-3-carboxamide]	
		COc1ccc(C2(N(C)c3c(Cl)c(C(=O)NC4C5CC6CC4CC(C(N)=O)(C6)C5)nn3C)CC2)cc1 (stereo not drawn) [Example 22, N-[(E)-5-(Aminocarbonyl)-2-adamantyl]-4-chloro-5-[[1-(4-methoxyphenyl)cyclopropyl](methyl)amino]-1-methyl-1H-pyrazole-3-carboxamide]	IC50 [1]: 1.8 nM
	6.4 nM	CN(CC1CCN(c2ccc(C#N)cn2)CC1)c1c(Cl)c(C(=O)N[C@H]2C3CC4CC2C[C@](O)(C4)C3)nn1C [Example 166, 4-Chloro-5-[{[1-(5-cyanopyridin-2-yl)piperidin-4-yl]methyl}(methyl)amino]-N-[(E)-5-hydroxy-2-adamantyl]-1-methyl-1H-pyrazole-3-carboxamide]	
	8.7 nM	CC(C)N(C)c1cc(C(=O)N[C@H]2C3CC4CC2C[C@](C(N)=O)(C4)C3)nn1C [Example 8, N-[(E)-5-Carbamoyladamantan-2-yl]-5-[isopropyl(methyl)amino]-1-methyl-1H-pyrazole-3-carboxamide]	
